Where two headings read alike, the source gives them in different places. Marks after values point to notes of the source that are not given here.
Key:
[1] = Hydrolytic stability assay; assay type: physicochemical; details: for half-life: 20 mM mixed acetate, borate and phosphate buffer; for half-life / Hydrolytic Stability (t1/2, hours) pH 7: 40° C.; for % remaining at last assessment time: pH 7, 40° C.
Procedure: The objective of the hydrolytic stability assays is to determine the chemical stability of individual test compounds according to the invention in a controlled and reproducible environment, allowing a comparison of compound in vitro stability under aqueous conditions at pH 7 and 9. Prior to conducting the individual hydrolytic stability assays, stock solutions containing 1000 ppm of each test compound (ie, compounds (IA-1a), (IA-1b), (IA-17a), (IA-17b), P1 and P2) were prepared in methanol. The reagents used in the assays were prepared as follows. A 20 mM buffer solution was prepared from a stock solution of 20 mM mixed acetate, borate and phosphate buffer and the pH adjusted to 7 or 9 as required. Test solutions were prepared in LC vials for each test compound in the following manner: Mobile Phase Control: Mobile phase (1 mL)+compound stock solution (2 to 40 μL). Hydrolytic Stability: Buffer (1 mL)+compound stock solution (2 to 40 μL). The mobile phase and buffer were initially dispensed into separate glass LC vials, placed into an autosampler complete with thermostat set at 40° C. and allowed to equilibrate for 30 minutes prior to starting the individual assays. Reactions were initiated by addition of the compound solution and monitored through a series of repeat injections made directly from the vial into the HPLC system at regular time intervals. Initial and subsequent measurements of peak area attributable to the test compound were used to fit exponential half-lives and calculate first-order rate constants. […] Consequently, the percentage of compound remaining was recorded at the last assessment time.

[2] = Soil stability assay; assay type: physicochemical; details: Stein soil:sand 1:1, 0.3 μg/g soil, dark, 20° C.
Description: It is highly desirable that agrochemicals applied to soil in order to deliver a beneficial biological effect can exist in the soil for a prolonged period of time with minimal degradation. However, a biologically active agrochemical compound may undergo chemical transformation in soil, leading to decreased levels of activity and a decrease in a desired biological effect. Simple laboratory degradation studies can be used to evaluate the disappearance due to biotic and abiotic processes of a compound in soil. The time taken for a compound to degrade in soil allows the estimation of their half-life (t1/2), which corresponds to the time in which 50% of the compound under evaluation is degraded in soil. […] Stock standard solutions were prepared by dissolving 1 mg of each test compound (ie, compounds (IA-1a and IA-1b), (IA-17a and IA-17b), P1 and P2) in acetonitrile. The stock standard solutions were stored at 6° C. Working standard solutions were then obtained by a series of dilutions of the stock standard solutions. A treatment solution of 100 μg/mL concentration for each test compound was prepared in methanol. Soil samples used for this soil stability assay were collected at the Syngenta Research Centre location in Stein (Switzerland). The soil was classified as clay loam. Certain physical properties of the soil are described in Table 2. 2 mm sieved Stein soil was mixed with sand at ratio 1:1 prior to starting the laboratory soil degradation experiment. 10 g of the sand-soil mix (air-dried basis) was weighed into 50 ml Corning® polypropylene centrifuge tubes and soil moisture was adjusted at 45% of the field capacity. Chemical application was performed by applying 30 μl of a 100 μg/mL solution of each test compound to 10 g soil vessel corresponding to a final concentration of 0.3 μg test compound per gram of soil. Three replicates were considered for each test compound. Treated tubes were incubated in the dark at 20° C.±0.5. For the estimation of half-life, different sampling times were considered. Based on initial studies, a fast degradation was expected for compounds P1, P2 and IA-17 therefore the following short sampling times of 0, 3, 6, 9 and 24 hours after application were considered. Conversely for compounds IA-1, longer sampling times of 0, 6, 24, 48, 72, 168 and 240 hours after application were used. At each sampling time, samples were removed and stored at −80° C. until analysis. The half-lives were calculated by an exponential regression analysis plotting the percentage of recovered compound in soil against the time. Compounds P1, P2, (IA-1) and (IA-17) were extracted from soil by using 30 mL of Acetonitrile (CHROMASOLV® gradient grade, for HPLC, >99.9%, SIGMA-ALDRICH). The mixture was shaken for 3 hours at room temperature by using a vertical rotary shaker. After centrifugation at 3000 rpm for 5 minutes, an aliquot of the supernatant was collected and analyzed via UPLC-MS (Waters Acquity UPLC-MS PDA-Detection: 254 nm- and SQD-Zspray ESI, APCI, ESCi®-; Waters Acquity UPLC Column HSS T3 2.1×30 mm-1.8 μm; Gradient mobile phase with Solvent A: Water/MeOH (9:1)+ 0.1% Formic Acid and Solvent B: Acetonitrile+ 0.1% Formic Acid; flow of 0.75 ml/min).

[3] = tested on: NK Falkone corn seeds; test: Corn seed germination under cold stress; assay type: in vivo; details: 250 μM, cold stress 15° C., control T50 = 110 hours; negative = faster germination
Procedure: Corn seed germination studies were undertaken on the compounds of the present invention. In particular, the effect of the compounds of Formulae (IA-1a) and (IA-1b) on the germination of NK Falkone corn seeds (Syngenta) under cold stress was evaluated as follows.
NK Falkone corn seeds were sorted by size using 2 sieves, one excluding very big seeds and the other with round holes of 8 to 9 mm diameter. The seeds retained by the latter sieve were used for the germination test.
The corn seeds were placed in 24 well plates (each plate is considered as one experimental unit or replicate). Germination is initiated by the addition of 250 μl of distilled water containing 0.5% DMSO per well as a means for compound solubilization. 8 replicates (ie, 8 plates) were used for each treatment characterization. Plates were sealed using seal foil (Polyolefin Art. Nr. 900320) from HJ-BIOANALYTIK. All plates were placed horizontally on trolleys in a climatic chamber at 15° C. or 23° C. in complete darkness. The experiment was laid out in a completely randomized design in a climatic chamber with 75% relative humidity. Foils were pierced, one hole per well using a syringe after 72 hours for experiments performed at 15° C. and after 24 hours for experiments performed at 23° C.
Germination was followed over time by taking photographs at different time points. Image analysis is done automatically with a macro developed using the Image J software. A dynamic analysis of germination is carried out by fitting a logistic curve to the relationship between % germination and time for each plate (T50 parameter).
T50 is the time needed for half the seed population to be germinated. A negative value of T50 represents a faster germination rate. The mean of T50 parameters is calculated for the 8 replicates and the kinetic parameter is determined for each germination curve. Data in bold indicate germination enhancing statistically significant differences between treated seeds and control (empty vehicle treated) T50 values (P<0.05) as outlined in Table 4.

[4] = pH 9, 20 mM acetate/borate/phosphate buffer, read-out: Hydrolytic Stability (t1/2, hours) pH 9 (converted)
[5] = pH 7, 20 mM acetate/borate/phosphate buffer
[6] = pH 7, 20 mM acetate/borate/phosphate buffer, read-out: Hydrolytic Stability (t1/2, hours) pH 7 (converted)

Row | SMILES | half-life [1, 4] | Hydrolytic Stability (t1/2, hours) pH 7 [1, 5] | Hydrolytic Stability (t1/2, hours) pH 7 ([1]; pH 7, 20 mM acetate/borate/phosphate buffer, listed as IA-1a) | % remaining at last assessment time ([1]; at 17.9 hours) | Soil Stability (t1/2, hours) [2] | T50 (% vs control) [3] | Hydrolytic Stability (t1/2, hours) pH 7 ([1]; pH 7, 20 mM acetate/borate/phosphate buffer, listed as IA-1b) | % remaining at last assessment time ([1]; at 21.1 hours) | Hydrolytic Stability (t1/2, hours) pH 7 ([1]; pH 7, 20 mM acetate/borate/phosphate buffer, listed as IA-17a) | % remaining at last assessment time ([1]; at 17.3 hours) | Hydrolytic Stability (t1/2, hours) pH 7 ([1]; pH 7, 20 mM acetate/borate/phosphate buffer, listed as IA-17b) | % remaining at last assessment time ([1]; at 16.8 hours) | half-life [1, 6] | % remaining at last assessment time ([1]; at 21.5 hours) | % remaining at last assessment time ([1]; at 15.8 hours)
1 | CC1=C(C)[C@H](O/C=C2/C(=O)N[C@@H]3c4ccccc4C[C@H]23)OC1=O [(IA-1a), (3E,3aR,8bS)-3-[[(2R)-3,4-dimethyl-5-oxo-2H-furan-2-yl]oxymethylene]-1,3a,4,8b-tetrahydroindeno[1,2-b]pyrrol-2-one] | 2.4 h | stable^b | insufficient loss was observed | ^b91.8% remaining at 17.9 hours | 87 h | −6.10^c % vs control | – | – | – | – | – | – | – | – | –
2 | CC1=C(C)[C@@H](O/C=C2/C(=O)N[C@@H]3c4ccccc4C[C@H]23)OC1=O [(IA-1b), (3E,3aR,8bS)-3-[[(2S)-3,4-dimethyl-5-oxo-2H-furan-2-yl]oxymethylene]-1,3a,4,8b-tetrahydroindeno[1,2-b]pyrrol-2-one] | 2.1 h | stable^a | – | – | 53 h | −7.60 % vs control | insufficient loss was observed | ^a90.9% remaining at 21.1 hours | – | – | – | – | – | – | –
3 | COC1=C(C)C(=O)O[C@H]1O/C=C1/C(=O)N[C@@H]2c3ccccc3C[C@H]12 [(IA-17a), (3E,3aR,8bS)-3-[[(2R)-3-methoxy-4-methyl-5-oxo-2H-furan-2-yl]oxymethylene]-1,3a,4,8b-tetrahydroindeno[1,2-b]pyrrol-2-one] | 16.6 h | stable^d | – | – | 340 h | −6.50 % vs control | – | – | insufficient loss was observed | ^d99.1% remaining at 17.3 hours | – | – | – | – | –
4 | COC1=C(C)C(=O)O[C@@H]1O/C=C1/C(=O)N[C@@H]2c3ccccc3C[C@H]12 [(IA-17b), (3E,3aR,8bS)-3-[[(2S)-3-methoxy-4-methyl-5-oxo-2H-furan-2-yl]oxymethylene]-1,3a,4,8b-tetrahydroindeno[1,2-b]pyrrol-2-one] | 19 h | stable^c | – | – | 312 h | −5.10 % vs control | – | – | – | – | insufficient loss was observed | ^c99.0% remaining at 16.8 hours | – | – | –
5 | CC1=C[C@H](O/C=C2/C(=O)N[C@@H]3c4ccccc4C[C@H]23)OC1=O [Compound P1, reference compound] | 0.4 h | – | – | – | 4 h | −4.20 % vs control | – | – | – | – | – | – | 25.6 h | ^f55.4% remaining at 21.5 hours | –
6 | CC1=C[C@@H](O/C=C2/C(=O)N[C@@H]3c4ccccc4C[C@H]23)OC1=O [Compound P2, reference compound] | 0.3 h | – | – | – | 4.2 h | −2.30 % vs control | – | – | – | – | – | – | 79.5 h | – | ^e86.9% remaining at 15.8 hours

Reference: US20180168154A1, “PLANT GROWTH REGULATING COMPOUNDS” (Syngenta Participations AG, priority 2015, published 2018)
